Source: ChEMBL document CHEMBL4138278, “Neothioviridamide, a Polythioamide Compound Produced by Heterologous Expression of a Streptomyces sp. Cryptic RiPP Biosynthetic Gene Cluster” (J Nat Prod, 2018)

What was measured:
Format in all cases: functional, cell-based
[1] = system: SK-OV-3; test: Cytotoxicity against human SKOV3 cells assessed as reduction in cell viability after 72 hrs by CellTiter-Glo luminescence assay; details: SK-OV-3, 72 h
[2] = Cytotoxicity against human ACC-MESO1 cells assessed as reduction in cell viability after 72 hrs by CellTiter-Glo luminescence assay; details: ACC-MESO-1, 72 h
[3] = system: Jurkat; test: Cytotoxicity against human Jurkat cells assessed as reduction in cell viability after 72 hrs by CellTiter-Glo luminescence assay

CSCCC(NC(=S)C(NC(=O)C(C)=O)C(C)C)C(=S)NC(C)C(=O)NC(C)C(=S)NC(C)C(=S)NC(C)C(=O)NC1C(=O)NC(C(C)C)C(=O)NC(C)C(=O)NC(Cc2ccccc2)C(=O)NC(C(O)c2cn(C)c[n+]2C)C(=O)N/C=C\SC1C (stereo not drawn)
IC50 [1]: 2100 nM
IC50 [2]: 700 nM
IC50 [3]: 400 nM
